Test results reported in paper PMC6584941 (Cancer Letters, 2019).
Square brackets hold non-standard residues; d marks the D form. Ends that are not written are not given here. pY = N[C@@H](Cc1ccc(OP(=O)(O)O)cc1)C(=O)O

Assays:
[1] = biological target: T1, Shc (PTB domain, Shc^PTB R175Q) (Homo sapiens, UniProt P29353, R285Q); experiment: MST with Atto488-labelled Shc^PTB R175Q; type: binding
T1 sequence (P29353 156-339 R285Q limits assumed): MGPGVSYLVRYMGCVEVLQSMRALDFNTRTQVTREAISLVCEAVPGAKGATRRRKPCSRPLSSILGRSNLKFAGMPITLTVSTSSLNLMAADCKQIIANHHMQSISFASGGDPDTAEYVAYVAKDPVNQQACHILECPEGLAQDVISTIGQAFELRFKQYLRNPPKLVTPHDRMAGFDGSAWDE

[2] = biological target: T2, Shc (PTB domain, Shc^PTB) (Homo sapiens, UniProt P29353); experiment: ITC; type: binding
T2 sequence (P29353 156-339 limits assumed): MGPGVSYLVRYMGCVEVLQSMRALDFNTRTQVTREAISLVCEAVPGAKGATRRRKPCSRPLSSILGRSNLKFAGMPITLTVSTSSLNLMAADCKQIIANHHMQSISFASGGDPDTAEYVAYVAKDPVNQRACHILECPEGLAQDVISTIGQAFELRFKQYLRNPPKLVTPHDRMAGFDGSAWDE

[3] = biological target: T3, Shc phosphotyrosine binding (PTB) domain (UniProt P29353-2 17-207, Atto488 label, 1:1 protein:dye (in the MST only)); experiment: MST
T3 sequence: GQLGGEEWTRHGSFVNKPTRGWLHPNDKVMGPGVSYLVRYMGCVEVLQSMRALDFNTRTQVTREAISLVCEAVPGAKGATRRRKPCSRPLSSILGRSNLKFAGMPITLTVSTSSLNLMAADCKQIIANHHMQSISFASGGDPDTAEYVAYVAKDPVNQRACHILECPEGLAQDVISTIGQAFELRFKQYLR

COc1ccc2c(c1)c(CC(=O)O)c(C)n2C(=O)c1ccc(Cl)cc1 [indomethacin]
Kd [1]: 590 ± 54 µM
Kd [2]: 38.2 ± 7.2 µM

B1: ErbB2 pY1122 peptide (peptide)
peptide: SPAFDNLY[pY]WDQ
Kd [3]: 0.261 µM
